Drawing on patent US20080107623A1, “Inhibitors of Hepatitis C Virus” (Bristol-Myers Squibb Company, priority 2006, published 2008), this text covers IC50 for 1 molecule.

One may read the IC50 as the midpoint of a concentration-inhibition curve.

Molecules are shown by their SMILES.

In experiment [1] the target is T1, HCV NS3/4A protease complex, BMS strain (UniProt P27958, species not given/STRAIN_BMS).
T1 construct: said of H77 and J4L6S, not expressly of BMS; These are given for the H77 and J4L6S constructs only
T1 sequence (P27958 1027-1657, change not shown, one chain of several): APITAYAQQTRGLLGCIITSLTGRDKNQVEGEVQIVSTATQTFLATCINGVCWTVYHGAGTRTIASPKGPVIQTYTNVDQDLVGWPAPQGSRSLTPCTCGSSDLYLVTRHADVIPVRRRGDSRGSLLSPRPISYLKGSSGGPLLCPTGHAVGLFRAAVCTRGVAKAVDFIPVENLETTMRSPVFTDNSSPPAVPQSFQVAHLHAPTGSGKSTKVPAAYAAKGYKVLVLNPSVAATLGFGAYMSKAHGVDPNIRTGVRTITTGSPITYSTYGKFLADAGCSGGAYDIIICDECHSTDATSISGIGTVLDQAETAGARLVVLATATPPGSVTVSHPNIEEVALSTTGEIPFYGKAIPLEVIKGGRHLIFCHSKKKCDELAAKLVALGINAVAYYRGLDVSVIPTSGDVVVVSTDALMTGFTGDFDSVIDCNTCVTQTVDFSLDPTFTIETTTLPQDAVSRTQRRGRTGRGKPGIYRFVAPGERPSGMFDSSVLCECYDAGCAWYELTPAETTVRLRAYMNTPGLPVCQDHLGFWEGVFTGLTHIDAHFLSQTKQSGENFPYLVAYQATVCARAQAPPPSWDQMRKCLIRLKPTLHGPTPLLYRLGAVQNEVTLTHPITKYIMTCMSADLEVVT
The experiment can be described thus: FRET peptide assay to monitor HCV NS3/4A proteolytic activity (BMS strain). The settings on record: NS3/4A BMS strain; read-out: IC50 Activity Range. It counts as biochemical, HCV genotype 1a. The source says:
HCV NS3 protease complexes, derived from the BMS strain, H77 strain or J4L6S strain, were generated, as described below. These purified recombinant proteins were generated for use in a homogeneous assay (see below) to provide an indication of how effective compounds of the present disclosure would be in inhibiting HCV NS3 proteolytic activity.
Serum from an HCV-infected patient was obtained from Dr. T. Wright, San Francisco Hospital. An engineered full-length cDNA (compliment deoxyribonucleic acid) template of the HCV genome (BMS strain) was constructed from DNA fragments obtained by reverse transcription-PCR (RT-PCR) of serum RNA (ribonucleic acid) and using primers selected on the basis of homology between other genotype 1a strains. From the determination of the entire genome sequence, a genotype 1a was assigned to the HCV isolate according to the classification of Simmonds et al. (See P Simmonds, K A Rose, S Graham, S W Chan, F McOmish, B C Dow, E A Follett, P L Yap and H Marsden, J. Clin. Microbiol., 31(6), 1493-1503 (1993)). […] The infectious clones, H77 (1a genotype) and J4L6S (1b genotype) were obtained from R. Purcell (NIH) and the sequences are published in Genbank (AAB67036, see Yanagi, M., Purcell, R. H., Emerson, S. U. and Bukh, J. Proc. Natl. Acad. Sci. U.S.A. 94(16),8738-8743 (1997); AF054247, see Yanagi, M., St Claire, M., Shapiro, M., Emerson, S. U., Purcell, R. H. and Bukh, J, Virology 244 (1), 161-172. (1998)).
NS3/4A protease complex-containing fractions were pooled and loaded on a desalting column Superdex-S200 pre-equilibrated with buffer D (25 mM HEPES, pH 7.5, 20% glycerol, 300 mM NaCl, 0.2% Triton X-100, 10 mM βME). Sample was loaded at a flow rate of 1 mL/min. NS3/4A protease complex-containing fractions were pooled and concentrated to approximately 0.5 mg/ml. The purity of the NS3/4A protease complexes, derived from the BMS, H77 and J4L6S strains, were judged to be greater than 90% by SDS-PAGE and mass spectrometry analyses. The enzyme was stored at −80° C., thawed on ice and diluted prior to use in assay buffer.
The purpose of this in vitro assay was to measure the inhibition of HCV NS3 protease complexes, derived from the BMS strain, H77 strain or J4L6S strain, as described above, by compounds of the present disclosure. This assay provides an indication of how effective compounds of the present disclosure would be in inhibiting HCV NS3 proteolytic activity.
In order to monitor HCV NS3/4A protease activity, an NS3/4A peptide substrate was used. The substrate was RET SI (Resonance Energy Transfer Depsipeptide Substrate; AnaSpec, Inc. cat #22991) (FRET peptide), described by Taliani et al. in Anal. Biochem. 240(2):60-67 (1996). […] The peptide also contains a fluorescence donor, EDANS, near one end of the peptide and an acceptor, DABCYL, near the other end. The fluorescence of the peptide is quenched by […] resonance energy transfer (RET) between the donor and the acceptor, but as the NS3 protease cleaves the peptide the products are released from RET quenching and the fluorescence of the donor becomes apparent.
The peptide substrate was incubated with one of the three recombinant NS3/4A protease complexes, in the absence or presence of a compound of the present disclosure. The inhibitory effects of a compound was determined by monitoring the formation of fluorescent reaction product in real time using a Cytofluor Series 4000. […]

The target in experiment [2] is T2, human neutrophil elastase (HNE) (Homo sapiens, UniProt P08246).
T2 construct: purchased Sigma or EMDbiosciences
T2 sequence (P08246 30-267): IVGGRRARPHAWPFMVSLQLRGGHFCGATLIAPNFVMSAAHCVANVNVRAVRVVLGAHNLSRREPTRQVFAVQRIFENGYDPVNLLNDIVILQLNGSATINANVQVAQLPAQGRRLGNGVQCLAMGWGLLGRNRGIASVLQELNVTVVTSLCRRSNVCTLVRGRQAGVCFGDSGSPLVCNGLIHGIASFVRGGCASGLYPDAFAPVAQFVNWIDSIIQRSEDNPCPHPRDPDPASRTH
The experiment can be described thus: Specificity assay, elastase (pNA substrate). It counts as biochemical. As to conditions: read-out: HLE activity in the specificity assay (IC50). On the procedure:
The specificities of compounds of the present disclosure were determined against a variety of serine proteases: human neutrophil elastase (HNE), porcine pancreatic elastase (PPE) and human pancreatic chymotrypsin and one cysteine protease: human liver cathepsin B. In all cases, a 96-well plate format protocol using colorimetric p-nitroaniline (pNA) substrate or fluorometric Amino-Methyl-Coumarin (AMC) substrate, specific for each enzyme was used as described previously (PCT Patent Application No. WO 00/09543) with some modifications. All enzymes were purchased from Sigma or EMDbiosciences while the substrates were from Bachem.
Each pNA assay included a 2 h enzyme-inhibitor pre-incubation at room temperature followed by addition of substrate and hydrolysis to ˜15% conversion as measured on a Spectramax Pro microplate reader. The cathepsin B assay was initiated by adding substrate to a 10 min enzyme-inhibitor pre-incubation at room temperature, and the assay plate measured immediately using the Cytofluor Series 4000. Compound concentrations varied from 100 to 0.4 μM depending on their potency.
50 mM Tris(hydroxymethyl)aminomethane hydrochloride (Tris-HCl) pH 8, 0.5 M Sodium Sulfate (Na2SO4), 50 mM NaCl, 0.1 mM EDTA, 3% DMSO, 0.01% Tween-20 with: […]
The percentage of inhibition was calculated using the formula: [1−((UVinh−UVblank)/(UVctl−UVblank))]×100 […]

Consider `COc1c(O[C@@H]2C[C@H]3C(=O)N[C@]4(C(=O)NS(=O)(=O)C5CC5)C[C@H]4/C=C\CCCCC[C@H](NC(=O)OC(C)(C)C)C(=O)N3C2)ccc2c(Cl)nccc12` [Compound 3], for which the IC50 in experiment [1] is less than 0.1 µM; in experiment [2], more than 25 µM.
